Test results taken from PubChem BioAssay AID2060618 (Molecular Pharmacology Branch, DTP, NCI, 2025).

Test system: 454973-116-R2-J3-PDC spheroids, percent test/control viability
Test: Anticancer human tumor 454973-116-R2-J3-PDC patient-derived pancreatic carcinoma cell line growth inhibition [CLK]
Conditions: spheroids with HUVEC and MSC; for IC50: curve of first compound; for viability, T/C: stronger effect = lower value; active means viability on the fitted dose curve at most 10% of control; inactive means the rest
How it was run: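 Patient-derived tumor cells grown as complex spheroids with HUVEC endothelial cells and mesenchymal stem cells, treated with drug combinations. Concentrations descend in half-log steps from near clinical Cmax, or from 10 microM if Cmax unknown.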

[1] = second compound 0.0316 µM, first compound 0.0316 µM
[2] = second compound 0.0316 µM, first compound 0.1 µM
[3] = second compound 0.1 µM, first compound 0.0316 µM
[4] = second compound 0.1 µM, first compound 0.1 µM
[5] = second compound 0.316 µM, first compound 0.0316 µM
[6] = second compound 0.316 µM, first compound 0.1 µM
[7] = second compound 1 µM, first compound 0.0316 µM
[8] = second compound 1 µM, first compound 0.1 µM
[9] = second compound 3.16 µM, first compound 0.0316 µM
[10] = second compound 3.16 µM, first compound 0.1 µM
[11] = second compound 10 µM, first compound 0.0316 µM
[12] = second compound 10 µM, first compound 0.1 µM
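Further: spheroids exposed to compounds for 7 days before readout.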

Cn1ncnc1[C@H]1c2n[nH]c(=O)c3cc(F)cc(c23)N[C@@H]1c1ccc(F)cc1 + CNC(=O)c1ccc(Nc2nc(OC3CCCC3)c3c(-c4ccc5nc(C)oc5c4)c[nH]c3n2)c(OC)c1
inactive: viability, T/C (second compound 0.0316 µM, first compound 0.000316 µM) 110% | viability, T/C (second compound 0.0316 µM, first compound 0.001 µM) 114% | viability, T/C (second compound 0.0316 µM, first compound 0.00316 µM) 110% | viability, T/C (second compound 0.0316 µM, first compound 0.01 µM) 119% | viability, T/C [1] 105% | viability, T/C [2] 86.2% | viability, T/C (second compound 0.1 µM, first compound 0.000316 µM) 113% | viability, T/C (second compound 0.1 µM, first compound 0.001 µM) 104% | viability, T/C (second compound 0.1 µM, first compound 0.00316 µM) 104% | viability, T/C (second compound 0.1 µM, first compound 0.01 µM) 106% | viability, T/C [3] 104% | viability, T/C [4] 86.4% | viability, T/C (second compound 0.316 µM, first compound 0.000316 µM) 43.1% | viability, T/C (second compound 0.316 µM, first compound 0.001 µM) 51.2% | viability, T/C (second compound 0.316 µM, first compound 0.00316 µM) 50.8% | viability, T/C (second compound 0.316 µM, first compound 0.01 µM) 52.2% | viability, T/C [5] 52.2% | viability, T/C [6] 48.1% | viability, T/C (second compound 1 µM, first compound 0.000316 µM) 33.1% | viability, T/C (second compound 1 µM, first compound 0.001 µM) 31.5% | viability, T/C (second compound 1 µM, first compound 0.00316 µM) 27.8% | viability, T/C (second compound 1 µM, first compound 0.01 µM) 36.4% | viability, T/C [7] 31.1% | viability, T/C [8] 23.5% | viability, T/C (second compound 3.16 µM, first compound 0.000316 µM) 29.2% | viability, T/C (second compound 3.16 µM, first compound 0.001 µM) 26.7% | viability, T/C (second compound 3.16 µM, first compound 0.00316 µM) 29% | viability, T/C (second compound 3.16 µM, first compound 0.01 µM) 25.7% | viability, T/C [9] 23.9% | viability, T/C [10] 21.4% | viability, T/C (second compound 10 µM, first compound 0.000316 µM) 25.5% | viability, T/C (second compound 10 µM, first compound 0.001 µM) 27.6% | viability, T/C (second compound 10 µM, first compound 0.00316 µM) 25.8% | viability, T/C (second compound 10 µM, first compound 0.01 µM) 21.7% | viability, T/C [11] 24.5% | viability, T/C [12] 19.6%
< 0.316 nM: IC50 (second compound 0.316 µM) | IC50 (second compound 1 µM) | IC50 (second compound 3.16 µM) | IC50 (second compound 10 µM)
> 100 nM: IC50 (second compound 0.0316 µM) | IC50 (second compound 0.1 µM)

O=C(c1cc(Cc2n[nH]c(=O)c3ccccc23)ccc1F)N1CCN(C(=O)C2CC2)CC1 + CNC(=O)c1ccc(Nc2nc(OC3CCCC3)c3c(-c4ccc5nc(C)oc5c4)c[nH]c3n2)c(OC)c1
inactive: viability, T/C [1] 94.7% | viability, T/C [2] 107% | viability, T/C (second compound 0.0316 µM, first compound 0.316 µM) 98.4% | viability, T/C (second compound 0.0316 µM, first compound 1 µM) 104% | viability, T/C (second compound 0.0316 µM, first compound 3.16 µM) 94.6% | viability, T/C (second compound 0.0316 µM, first compound 10 µM) 75.9% | viability, T/C [3] 101% | viability, T/C [4] 105% | viability, T/C (second compound 0.1 µM, first compound 0.316 µM) 95.8% | viability, T/C (second compound 0.1 µM, first compound 1 µM) 101% | viability, T/C (second compound 0.1 µM, first compound 3.16 µM) 92.8% | viability, T/C (second compound 0.1 µM, first compound 10 µM) 77.4% | viability, T/C [5] 39.6% | viability, T/C [6] 52.1% | viability, T/C (second compound 0.316 µM, first compound 0.316 µM) 40.9% | viability, T/C (second compound 0.316 µM, first compound 1 µM) 51.4% | viability, T/C (second compound 0.316 µM, first compound 3.16 µM) 47.8% | viability, T/C (second compound 0.316 µM, first compound 10 µM) 40.3% | viability, T/C [7] 36.5% | viability, T/C [8] 33.9% | viability, T/C (second compound 1 µM, first compound 0.316 µM) 31.4% | viability, T/C (second compound 1 µM, first compound 1 µM) 33.3% | viability, T/C (second compound 1 µM, first compound 3.16 µM) 29.9% | viability, T/C (second compound 1 µM, first compound 10 µM) 24.3% | viability, T/C [9] 32.3% | viability, T/C [10] 33.2% | viability, T/C (second compound 3.16 µM, first compound 0.316 µM) 35.1% | viability, T/C (second compound 3.16 µM, first compound 1 µM) 32% | viability, T/C (second compound 3.16 µM, first compound 3.16 µM) 29.4% | viability, T/C (second compound 3.16 µM, first compound 10 µM) 22.5% | viability, T/C [11] 26.3% | viability, T/C [12] 33.6% | viability, T/C (second compound 10 µM, first compound 0.316 µM) 30.4% | viability, T/C (second compound 10 µM, first compound 1 µM) 29.4% | viability, T/C (second compound 10 µM, first compound 3.16 µM) 28.2% | viability, T/C (second compound 10 µM, first compound 10 µM) 23.8%
< 31.6 nM: IC50 (second compound 0.316 µM) | IC50 (second compound 1 µM) | IC50 (second compound 3.16 µM) | IC50 (second compound 10 µM)
> 10000 nM: IC50 (second compound 0.0316 µM) | IC50 (second compound 0.1 µM)
